The text below walks through data of US8063065B2, “Azaindazole compounds as CCR1 receptor antagonists” (Boehringer Ingelheim International GmbH, priority 2008, dated 2011).

The assay deals with T1, CCR1 (Homo sapiens, UniProt P32246).
T1 sequence (P32246 1-355): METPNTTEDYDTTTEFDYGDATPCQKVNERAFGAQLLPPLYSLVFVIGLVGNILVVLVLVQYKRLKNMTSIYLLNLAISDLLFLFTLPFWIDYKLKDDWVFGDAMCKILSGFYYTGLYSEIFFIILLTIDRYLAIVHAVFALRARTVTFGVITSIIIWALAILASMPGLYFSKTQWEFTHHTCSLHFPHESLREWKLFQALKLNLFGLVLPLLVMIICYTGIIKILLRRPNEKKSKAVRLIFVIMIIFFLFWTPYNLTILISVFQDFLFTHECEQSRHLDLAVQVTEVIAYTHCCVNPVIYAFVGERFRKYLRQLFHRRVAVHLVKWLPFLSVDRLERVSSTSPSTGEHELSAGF
Kind of assay: Method A: calcium flux in CCR1 transfected cells (Fluo-4 NW, FLIPR TETRA), block of the CCR1/MIP-1α interaction. The format is cell-based. As to conditions: Method A: Fluo-4 NW, MIP-1 alpha at EC80. In short, it runs like this:
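Non-adherent cells stably expressing recombinant CCR1 and G-alpha-16, Fluo-4 NW-loaded 1 h at room temperature, preincubated 1 h with compound (top 3,000 nM, 4-fold, 10 doses; 1% DMSO) in HBSS/20 mM HEPES pH 7.4. MIP-1 alpha added at EC80; intracellular calcium flux recorded on FLIPR TETRA.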
In general terms: Calcium flux is commonly read through the fluorescence of an indicator in the cells.

Regarding `CCCC(NC(=O)c1cncc2c1cnn2-c1ccc(F)cc1)c1cncc(Br)c1` (centres unmarked) [1-(4-Fluorophenyl)-1H-pyrazolo[3,4-c]pyridine-4-carboxylic acid [1-(5-bromopyridin-3-yl)-butyl]-amide], the IC50 came to 0.4 nM. Next, `C[C@H](NC(=O)c1cncc2c1cnn2-c1ccc(F)cc1)c1cccc(Br)n1` [1-(4-Fluorophenyl)-1H-pyrazolo[3,4-c]pyridine-4-carboxylic acid [(S)-1-(6-bromopyridin-2-yl)-ethyl]-amide]: 5 nM; `O=C(NCc1ccc(S(=O)(=O)N2CCC(O)C2)cc1)c1cncc2c1cnn2-c1ccc(Cl)cc1` (centres unmarked) [1-(4-Chlorophenyl)-1H-pyrazolo[3,4-c]pyridine-4-carboxylic acid 4-(3-hydroxy-pyrrolidine-1-sulfonyl)-benzylamide]: 2 nM. Consider `CCC[C@H](NC(=O)c1cncc2c1cnn2-c1ccc(F)cc1)c1cccnc1` [1-(4-Fluorophenyl)-1H-pyrazolo[3,4-c]pyridine-4-carboxylic acid ((S)-1-pyridin-3-yl-butyl)-amide], for which the half-inhibitory concentration (IC50) was found to be 5 nM. `CC(NC(=O)c1cncc2c1cnn2-c1ccc(F)cc1)c1ccc(Br)nc1` (centres unmarked) [1-(4-Fluorophenyl)-1H-pyrazolo[3,4-c]pyridine-4-carboxylic acid [1-(6-bromopyridin-3-yl)-ethyl]-amide]: the concentration for half-maximal inhibition (IC50) was determined as 30 nM.

`O=C(NCc1ccc(N2CCCCS2(=O)=O)nc1)c1cncc2c1cnn2-c1ccc(F)cc1` [1-(4-Fluorophenyl)-1H-pyrazolo[3,4-c]pyridine-4-carboxylic acid [6-(1,1-dioxo-1λ6-perhydro-1,2-thiazin-2-yl)-pyridin-3-ylmethyl]-amide]: the IC50 amounted to 9 nM.

In the case of `COc1cc(S(C)(=O)=O)ccc1CNC(=O)c1cncc2c1cnn2-c1ccc(F)cc1` [1-(4-Fluorophenyl)-1H-pyrazolo[3,4-c]pyridine-4-carboxylic acid 4-methanesulfonyl-2-methoxy-benzylamide], the IC50 was found to be 10 nM. Take `COCCNS(=O)(=O)c1ccc(CNC(=O)c2cncc3c2cnn3-c2ccc(F)cc2)cn1` [1-(4-Fluorophenyl)-1H-pyrazolo[3,4-c]pyridine-4-carboxylic acid [6-(2-methoxy-ethylsulfamoyl)-pyridin-3-ylmethyl]-amide]: the IC50 was determined as 9 nM. In the case of `O=C(NCc1ccc(S(=O)(=O)N2CCOCC2)nc1)c1cncc2c1cnn2-c1ccc(F)cc1` [1-(4-Fluorophenyl)-1H-pyrazolo[3,4-c]pyridine-4-carboxylic acid [6-(morpholine-4-sulfonyl)-pyridin-3-ylmethyl]-amide], the IC50 amounted to 18 nM. As to `O=C(NCc1cc(C(F)(F)F)cc(C(F)(F)F)c1)c1cncc2c1cnn2-c1ccc(F)cc1` [1-(4-Fluorophenyl)-1H-pyrazolo[3,4-c]pyridine-4-carboxylic acid 3,5-bis-trifluoromethyl-benzylamide], the IC50 is 3 nM.

Consider `COc1cc(CNC(=O)c2cncc3c2cnn3-c2ccc(F)cc2)ccc1S(C)(=O)=O` [1-(4-Fluorophenyl)-1H-pyrazolo[3,4-c]pyridine-4-carboxylic acid 4-methanesulfonyl-3-methoxy-benzylamide], for which the IC50 was found to be 4 nM.

Regarding `O=C(NCc1cccc(C(F)(F)F)c1)c1c[n+]([O-])cc2c1cnn2-c1ccc(F)cc1` [1-(4-Fluorophenyl)-6-oxy-1H-pyrazolo[3,4-c]pyridine-4-carboxylic acid 3-trifluoromethyl-benzylamide], the IC50 worked out at 6 nM.

Regarding `O=C1CN(S(=O)(=O)c2ccc(CNC(=O)c3cncc4c3cnn4-c3ccc(F)cc3)cc2)CCN1` [1-(4-Fluorophenyl)-1H-pyrazolo[3,4-c]pyridine-4-carboxylic acid 4-(3-oxo-piperazine-1-sulfonyl)-benzylamide], the IC50 stood at 3 nM. Take `CN1CCC(N(C)S(=O)(=O)c2ccc(CNC(=O)c3cncc4c3cnn4-c3ccc(F)cc3)cc2)CC1` [1-(4-Fluorophenyl)-1H-pyrazolo[3,4-c]pyridine-4-carboxylic acid 4-[methyl-(1-methyl-piperidin-4-yl)-sulfamoyl]-benzylamide]: the IC50 amounted to 5 nM.

In the case of `CCS(=O)(=O)c1ccc(CNC(=O)c2cncc3c2cnn3-c2ccc(F)cc2)cn1` [1-(4-Fluorophenyl)-1H-pyrazolo[3,4-c]pyridine-4-carboxylic acid (6-ethanesulfonyl-pyridin-3-ylmethyl)-amide], the IC50 is 31 nM. As for `O=C(NCc1ccc(CS(=O)(=O)N2CCOCC2)cc1)c1cncc2c1cnn2-c1ccc(F)cc1` [1-(4-Fluorophenyl)-1H-pyrazolo[3,4-c]pyridine-4-carboxylic acid 4-(morpholine-4-sulfonylmethyl)-benzylamide], the IC50 was found to be 20 nM. Regarding `CN1CCN(S(=O)(=O)Cc2ccc(CNC(=O)c3cncc4c3cnn4-c3ccc(F)cc3)cc2)CC1` [1-(4-Fluorophenyl)-1H-pyrazolo[3,4-c]pyridine-4-carboxylic acid 4-(4-methyl-piperazine-1-sulfonylmethyl)-benzylamide], the IC50 was 39 nM. The result for `CS(=O)(=O)c1ccc(CNC(=O)c2cncc3c2cnn3-c2ccc(F)cc2)cc1O` [1-(4-Fluorophenyl)-1H-pyrazolo[3,4-c]pyridine-4-carboxylic acid 3-hydroxy-4-methanesulfonyl-benzylamide] reads 24 nM; that for `C=CC[C@H](NC(=O)c1cncc2c1cnn2-c1ccc(F)cc1)c1ccnc(Br)c1` [1-(4-Fluorophenyl)-1H-pyrazolo[3,4-c]pyridine-4-carboxylic acid [(S)-1-(2-bromopyridin-4-yl)-but-3-enyl]-amide], 0.3 nM; that for `CCC[C@H](NC(=O)c1cncc2c1cnn2-c1ccc(F)cc1)c1cncc(S(=O)(=O)CCC(=O)O)c1` [3-[5-((S)-1-{[1-(4-Fluorophenyl)-1H-pyrazolo[3,4-c]pyridine-4-carbonyl]-amino}-butyl)-pyridine-3-sulfonyl]-propionic acid], 17 nM. As to `COc1cc(CNC(=O)c2cncc3c2cnn3-c2ccc(F)cc2)ccn1` [1-(4-Fluorophenyl)-1H-pyrazolo[3,4-c]pyridine-4-carboxylic acid (2-methoxy-pyridin-4-ylmethyl)-amide], the IC50 amounted to 2 nM.

Take `C[C@H](NC(=O)c1cncc2c1cnn2-c1ccc(Cl)cc1)c1cncc(Br)c1` [1-(4-Chlorophenyl)-1H-pyrazolo[3,4-c]pyridine-4-carboxylic acid [(S)-1-(5-bromopyridin-3-yl)-ethyl]-amide]: the IC50 amounted to 2 nM. Consider `CCCC(NC(=O)c1cncc2c1cnn2-c1ccc(F)cc1)c1ccnc(S(=O)(=O)CC)c1` (centres unmarked) [1-(4-Fluorophenyl)-1H-pyrazolo[3,4-c]pyridine-4-carboxylic acid [1-(2-ethanesulfonyl-pyridin-4-yl)-butyl]-amide], for which the IC50 stood at 0.8 nM. Regarding `COC(=O)CNS(=O)(=O)c1ccc(CNC(=O)c2cncc3c2cnn3-c2ccc(F)cc2)cc1` [[4-({[1-(4-Fluorophenyl)-1H-pyrazolo[3,4-c]pyridine-4-carbonyl]-amino}-methyl)-benzenesulfonylamino]-acetic acid methyl ester], the IC50 is 3 nM. Next, `O=C(NCc1ccc(S(=O)(=O)N2CCOCC2)nc1)c1cncc2c1cnn2-c1ccc(Cl)cc1` [1-(4-Chlorophenyl)-1H-pyrazolo[3,4-c]pyridine-4-carboxylic acid [6-(morpholine-4-sulfonyl)-pyridin-3-ylmethyl]-amide]: 3 nM.

For `NS(=O)(=O)c1cc(CNC(=O)c2cncc3c2cnn3-c2ccc(F)cc2)ccn1` [1-(4-Fluorophenyl)-1H-pyrazolo[3,4-c]pyridine-4-carboxylic acid (2-sulfamoyl-pyridin-4-ylmethyl)-amide], the IC50 turned out to be 13 nM. Next, `O=C(NCc1cc(Cl)cc(Cl)c1)c1cncc2c1cnn2-c1ccc(F)cc1` [1-(4-Fluorophenyl)-1H-pyrazolo[3,4-c]pyridine-4-carboxylic acid 3,5-dichloro-benzylamide]: 7 nM. For `CN(C)S(=O)(=O)c1ccc(CNC(=O)c2cncc3c2cnn3-c2ccc(F)cc2)cn1` [1-(4-Fluorophenyl)-1H-pyrazolo[3,4-c]pyridine-4-carboxylic acid (6-dimethylsulfamoyl-pyridin-3-ylmethyl)-amide], the IC50 stood at 1 nM. For `O=C(NCc1ccc(S(=O)(=O)N2CCC(O)CC2)cc1)c1cncc2c1cnn2-c1ccc(F)cc1` [1-(4-Fluorophenyl)-1H-pyrazolo[3,4-c]pyridine-4-carboxylic acid 4-(4-hydroxy-piperidine-1-sulfonyl)-benzylamide], the IC50 worked out at 2 nM. `C[C@H](NC(=O)c1cncc2c1cnn2-c1ccc(F)cc1)c1cncc(Br)c1` [1-(4-Fluorophenyl)-1H-pyrazolo[3,4-c]pyridine-4-carboxylic acid [(S)-1-(5-bromopyridin-3-yl)-ethyl]-amide]: the IC50 came to 1 nM. `CN1CCC(N(C)S(=O)(=O)Cc2ccc(CNC(=O)c3cncc4c3cnn4-c3ccc(F)cc3)cc2)CC1` [1-(4-Fluorophenyl)-1H-pyrazolo[3,4-c]pyridine-4-carboxylic acid 4-{[methyl-(1-methyl-piperidin-4-yl)-sulfamoyl]-methyl}-benzylamide]: the IC50 was determined as 33 nM.

`CC(NC(=O)c1cncc2c1cnn2-c1ccc(F)cc1)c1ccc(S(C)(=O)=O)nc1` (centres unmarked) [1-(4-Fluorophenyl)-1H-pyrazolo[3,4-c]pyridine-4-carboxylic acid [1-(6-methanesulfonyl-pyridin-3-yl)-ethyl]-amide]: the IC50 is 9 nM.

One may read the IC50 as the midpoint of a concentration-inhibition curve.
